The values that follow come from patent US10689367B2, “Triazole pyridyl compounds as agonists of the APJ receptor” (AMGEN INC., priority 2016, dated 2020).

Sequence of human APJ receptor (P35414 whole entry): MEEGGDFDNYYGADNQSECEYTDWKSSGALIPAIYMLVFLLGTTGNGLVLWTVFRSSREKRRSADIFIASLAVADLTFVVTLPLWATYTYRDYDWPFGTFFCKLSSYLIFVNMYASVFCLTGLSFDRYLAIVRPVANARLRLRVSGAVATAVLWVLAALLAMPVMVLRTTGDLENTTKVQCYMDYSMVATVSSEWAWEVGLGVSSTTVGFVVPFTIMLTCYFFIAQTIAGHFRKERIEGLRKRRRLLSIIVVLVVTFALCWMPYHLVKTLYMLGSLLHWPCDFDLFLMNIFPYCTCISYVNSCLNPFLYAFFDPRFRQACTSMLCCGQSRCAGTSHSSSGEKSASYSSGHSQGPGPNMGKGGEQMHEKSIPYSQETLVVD

The target in this assay is human APJ receptor (Homo sapiens (Human), UniProt P35414). Put plainly: [35S]GTPγS binding assay on membranes from CHO cells stably expressing human APJ receptor. It is filed as biochemical. The note with it: membranes of CHO cells stably expressing human APJ receptor, read-out: Activity hAPJ SPA EC50 IP. The method in brief:
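Agonist EC50 values come from non-linear regression of mean data from several independent runs. Membranes of CHO cells stably expressing human APJ were incubated 90 min at room temperature with [35S]GTPγS in buffer with optimized GDP, MgCl2 and NaCl, then read on a microplate imager.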
For orientation: GTPγS resists hydrolysis and so accumulates on activated G proteins.
For the molecule `COc1cccc(-c2nnc(NS(=O)(=O)[C@@H](C)[C@H](OC)c3ncc(Cl)cn3)n2[C@@H](C)c2ncnn2C)n1` (single isomer, unassigned) [Example 249.0, (1R,2S)-1-(5-chloro-2-pyrimidinyl)-1-methoxy-N-(5-(6-methoxy-2-pyridinyl)-4-((1R)-1-(1-methyl-1H-1,2,4-triazol-5-yl)ethyl)-4H-1,2,4-triazol-3-yl)-2-propanesulfonamide or (1R,2S)-1-(5-chloro-2-pyrimidinyl)-1-methoxy-N-(5-(6-methoxy-2-pyridinyl)-4-((1S)-1-(1-methyl-1H-1,2,4-triazol-5-yl)ethyl)-4H-1,2,4-triazol-3-yl)-2-propanesulfonamide], the EC50 (usually the midpoint of the concentration-response curve) was determined as 3 nM.
`COCC(COC)n1c(NS(=O)(=O)[C@@H](C)[C@@H](OC(C)C)c2ncc(C)cn2)nnc1-c1cccc(OC)n1` [Example 104.0]: the concentration for a half-maximal effect (EC50) was 0.39 nM.
Consider `COCCn1c(NS(=O)(=O)[C@@H](C)[C@H](C)c2ncc(OC)cn2)nnc1-c1cccc(OC)n1` [Example 20.0, (2S,3R)-N-(4-(2-methoxyethyl)-5-(6-methoxy-2-pyridinyl)-4H-1,2,4-triazol-3-yl)-3-(5-methoxy-2-pyrimidinyl)-2-butanesulfonamide], for which the EC50 worked out at 110 nM.
For `CO[C@H](c1ncc(Cl)cn1)[C@H](C)S(=O)(=O)Nc1nnc(-c2cncc(C)c2)n1C1CC12CC2` (mixture of isomers) [Example 150.0, (1R,2S)-1-(5-Chloropyrimidin-2-yl)-1-methoxy-N-(5-(5-methylpyridin-3-yl)-4-((R)-spiro[2.2]pentan-1-yl)-4H-1,2,4-triazol-3-yl)propane-2-sulfonamide and (1R,2S)-1-(5-chloropyrimidin-2-yl)-1-methoxy-N-(5-(5-methylpyridin-3-yl)-4-((S)-spiro[2.2]pentan-1-yl)-4H-1,2,4-triazol-3-yl)propane-2-sulfonamide] the value was 100 nM; for `CC[C@H](c1c(C)noc1C)n1c(NS(=O)(=O)[C@@H](C)[C@@H](OC(C)C)c2ncc(C)cn2)nnc1-c1cccc(OC)n1` (mixture of isomers) [Example 209.0, (1S,2S)-N-(4-((1R)-1-(3,5-dimethyl-1,2-oxazol-4-yl)propyl)-5-(6-methoxy-2-pyridinyl)-4H-1,2,4-triazol-3-yl)-1-(5-methyl-2-pyrimidinyl)-1-(2-propanyloxy)-2-propanesulfonamide and (1S,2S)-N-(4-((1S)-1-(3,5-dimethyl-1,2-oxazol-4-yl)propyl)-5-(6-methoxy-2-pyridinyl)-4H-1,2,4-triazol-3-yl)-1-(5-methyl-2-pyrimidinyl)-1-(2-propanyloxy)-2-propanesulfonamide], 14 nM; for `CO[C@H](c1ncc(Cl)cn1)[C@H](C)S(=O)(=O)Nc1nnc(-c2cccc(C)n2)n1C1(C)CCC1` [Example 59.0], 28 nM.
For `COCCn1c(NS(=O)(=O)[C@@H](C)[C@H](OC)c2ncc(Cl)cn2)nnc1-c1ccccn1` [Example 132.0] the value was 150 nM; for `CCc1cc(Cn2c(NS(=O)(=O)[C@@H](C)[C@H](OC)c3ncc(Cl)cn3)nnc2-c2cncc(C)c2)on1` [Example 293.0, (1R,2S)-1-(5-chloropyrimidin-2-yl)-N-(4-((3-ethylisoxazol-5-yl)methyl)-5-(5-methylpyridin-3-yl)-4H-1,2,4-triazol-3-yl)-1-methoxypropane-2-sulfonamide], 200 nM; for `COc1cccc(-c2nnc(NS(=O)(=O)[C@@H](C)[C@H](OC)c3ncc(Cl)cn3)n2C[C@H]2CCC(C)(C)O2)n1` (single isomer, unassigned) [Example 290.0, (1R,2S)-1-(5-chloropyrimidin-2-yl)-N-(4-(((R)-5,5-dimethyltetrahydrofuran-2-yl)methyl)-5-(6-methoxypyridin-2-yl)-4H-1,2,4-triazol-3-yl)-1-methoxypropane-2-sulfonamide or (1R,2S)-1-(5-chloropyrimidin-2-yl)-N-(4-(((S)-5,5-dimethyltetrahydrofuran-2-yl)methyl)-5-(6-methoxypyridin-2-yl)-4H-1,2,4-triazol-3-yl)-1-methoxypropane-2-sulfonamide], 15 nM.
For `COc1cccc(-c2nnc(NS(=O)(=O)[C@@H](C)[C@H](OC)c3ncc(Cl)cn3)n2C[C@@H]2CCC[C@H](C)O2)n1` (single isomer, unassigned) [Example 306.0] the value was 35 nM; for `COc1cccc(-c2nnc(NS(=O)(=O)[C@@H](C)[C@H](OC)c3ncc(Cl)cn3)n2CC(OC)OC)n1` [Example 77.0], 135 nM; for `COCC(COC)n1c(NS(=O)(=O)[C@@H](C)[C@H](OC)c2ncc(Cl)cn2)nnc1-c1ccccn1` [Example 14.0, (1R,2S)-1-(5-chloro-2-pyrimidinyl)-N-(4-(1,3-dimethoxy-2-propanyl)-5-(2-pyridinyl)-4H-1,2,4-triazol-3-yl)-1-methoxy-2-propanesulfonamiide], 6.4 nM.
As for `COc1cccc(-c2nnc(NS(=O)(=O)[C@@H](C)[C@H](OC)c3ncc(Cl)cn3)n2[C@H](C)c2cc(F)cc(F)c2)n1` (single isomer, unassigned) [Example 340.0, (1R,2S)-1-(5-chloropyrimidin-2-yl)-N-(4-((R)-1-(3,5-difluorophenyl)ethyl)-5-(6-methoxypyridin-2-yl)-4H-1,2,4-triazol-3-yl)-1-methoxypropane-2-sulfonamide or (1R,2S)-1-(5-chloropyrimidin-2-yl)-N-(4-((S)-1-(3,5-difluorophenyl)ethyl)-5-(6-methoxypyridin-2-yl)-4H-1,2,4-triazol-3-yl)-1-methoxypropane-2-sulfonamide], the concentration giving a half-maximal response (EC50) stood at 0.18 nM.
For `CO[C@H](c1ncc(Cl)cn1)[C@H](C)S(=O)(=O)Nc1nnc(-c2ccccn2)n1C` [Example 130.0], the EC50 is 350 nM.
For `COCC1(n2c(NS(=O)(=O)[C@@H](C)[C@H](OC)c3ncc(Cl)cn3)nnc2-c2cccnc2)CC1` [Example 60.0] the value was 1.2 nM.
With `CCc1noc(C)c1Cn1c(NS(=O)(=O)[C@@H](C)[C@H](OC)c2ncc(Cl)cn2)nnc1-c1cccc(OC)n1` [Example 192.0, (1R,2S)-1-(5-chloro-2-pyrimidinyl)-N-(4-((3-ethyl-5-methyl-1,2-oxazol-4-yl)methyl)-5-(6-methoxy-2-pyridinyl)-4H-1,2,4-triazol-3-yl)-1-methoxy-2-propanesulfonamide] the figure was 260 nM.
With `COc1cccc(-c2nnc(NS(=O)(=O)[C@@H](C)[C@@H](OC(C)C)c3ncc(C)cn3)n2C[C@H]2CCCO2)n1` (racemic) [Example 277.0, (1S,2S)-1-isopropoxy-N-(5-(6-methoxypyridin-2-yl)-4-(((R)-tetrahydrofuran-2-yl)methyl)-4H-1,2,4-triazol-3-yl)-1-(5-methylpyrimidin-2-yl)propane-2-sulfonamide or (1S,2S)-1-isopropoxy-N-(5-(6-methoxypyridin-2-yl)-4-(((S)-tetrahydrofuran-2-yl)methyl)-4H-1,2,4-triazol-3-yl)-1-(5-methylpyrimidin-2-yl)propane-2-sulfonamide] the figure was 14 nM; with `CC[C@H](c1c(C)noc1C)n1c(NS(=O)(=O)[C@@H](C)[C@H](C)c2ncc(Cl)cn2)nnc1-c1cccc(OC)n1` (mixture of isomers) [Example 210.0, (2S,3R)-3-(5-chloro-2-pyrimidinyl)-N-(4-((1R)-1-(3,5-dimethyl-1,2-oxazol-4-yl)propyl)-5-(6-methoxy-2-pyridinyl)-4H-1,2,4-triazol-3-yl)-2-butanesulfonamide and (2S,3R)-3-(5-chloro-2-pyrimidinyl)-N-(4-((1S)-1-(3,5-dimethyl-1,2-oxazol-4-yl)propyl)-5-(6-methoxy-2-pyridinyl)-4H-1,2,4-triazol-3-yl)-2-butanesulfonamide], 5.3 nM.
`CC[C@@H](c1c(C)noc1C)n1c(NS(=O)(=O)[C@@H](C)[C@@H](OC(C)C)c2ncc(C)cn2)nnc1-c1cccc(OC)n1` (single isomer, unassigned) [Example 220.0, (1S,2S)-N-(4-((1S)-1-(3,5-dimethyl-1,2-oxazol-4-yl)propyl)-5-(6-methoxy-2-pyridinyl)-4H-1,2,4-triazol-3-yl)-1-(5-methyl-2-pyrimidinyl)-1-(2-propanyloxy)-2-propanesulfonamide or (1S,2S)-N-(4-((1R)-1-(3,5-dimethyl-1,2-oxazol-4-yl)propyl)-5-(6-methoxy-2-pyridinyl)-4H-1,2,4-triazol-3-yl)-1-(5-methyl-2-pyrimidinyl)-1-(2-propanyloxy)-2-propanesulfonamide]: the EC50 is 55 nM.
In the case of “(1R,2S)-1-(5-Chloropyrimidin-2-yl)-1-methoxy-N-(4-((1R,2R)-2-methoxycyclobutyl)-5-(6-methoxypyridin-2-yl)-4H-1,2,4-triazol-3-yl)propane-2-sulfonamide and (1R,2S)-1-(5-chloropyrimidin-2-yl)-1-methoxy-N-(4-((1S,2S)-2-methoxycyclobutyl)-5-(6-methoxypyridin-2-yl)-4H-1,2,4-triazol-3-yl)propane-2-sulfonamide [Example 155.0]”, the EC50 was found to be 3.1 nM.
For `COc1cccc(-c2nnc(NS(=O)(=O)[C@@H](C)[C@@H](OC(C)C)c3ncc(C)cn3)n2[C@@H](C)c2ccon2)n1` (single isomer, unassigned) [Example 269.0, (1S,2S)-1-isopropoxy-N-(4-((R)-1-(isoxazol-3-yl)ethyl)-5-(6-methoxypyridin-2-yl)-4H-1,2,4-triazol-3-yl)-1-(5-methylpyrimidin-2-yl)propane-2-sulfonamide or (1S,2S)-1-isopropoxy-N-(4-((S)-1-(isoxazol-3-yl)ethyl)-5-(6-methoxypyridin-2-yl)-4H-1,2,4-triazol-3-yl)-1-(5-methylpyrimidin-2-yl)propane-2-sulfonamide] the value was 17 nM; for `COC[C@@H](C)n1c(NS(=O)(=O)[C@@H](C)[C@H](OC)c2ncc(Cl)cn2)nnc1-c1cccnc1` [Example 125.0], 90 nM.
